Measurements taken from patent US7473688B2, “Indolobenzazepine HCV NS5B inhibitors” (Bristol-Myers Squibb Company, priority 2005, dated 2009).
Where two headings read alike, the source gives them in different places.

How the values were obtained:
[1] = test system: HCV replicon; test: HCV replicon FRET assay; format: cell-based; conditions: Hepatitis C virus, FRET assay, read-out: EC50*
Outline: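 HCV replicon cells, with or without Renilla luciferase reporter, incubated with titrated compounds at 37 °C; Alamar blue read for cytotoxicity. NS3 protease activity read from lysates with 20 μM EDANS/DABCYL FRET peptide (340/490 nm, kinetic), or by Dual-Glo luciferase. Background from highest protease-inhibitor wells; EC50 = 50% signal reduction.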

[2] = target: T1, HCV NS5B (Hepatitis C virus genotype 1b, UniProt Q9WMX2); test: HCV NS5B RdRp enzyme assay (preincubation protocol); format: biochemical
T1 construct: The protein was expressed with an 18 amino acid C-terminal truncation to enhance the solubility; made in house; host or cells: E. coli BL21 (DE3), pET21a
Outline: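 C-terminally truncated (Δ18) genotype 1b NS5B from E. coli, 14 nM, added to compound, then polyA template (0.2 nM), 3H-UTP (0.29 μM) and oligo-dT12 primer precaptured on streptavidin SPA beads. 4 h at 30 °C, pH 7.5, 2% DMSO; SPA readout; IC50 from seven concentrations by logistic fit.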

T1 sequence (Q9WMX2 2420-2992): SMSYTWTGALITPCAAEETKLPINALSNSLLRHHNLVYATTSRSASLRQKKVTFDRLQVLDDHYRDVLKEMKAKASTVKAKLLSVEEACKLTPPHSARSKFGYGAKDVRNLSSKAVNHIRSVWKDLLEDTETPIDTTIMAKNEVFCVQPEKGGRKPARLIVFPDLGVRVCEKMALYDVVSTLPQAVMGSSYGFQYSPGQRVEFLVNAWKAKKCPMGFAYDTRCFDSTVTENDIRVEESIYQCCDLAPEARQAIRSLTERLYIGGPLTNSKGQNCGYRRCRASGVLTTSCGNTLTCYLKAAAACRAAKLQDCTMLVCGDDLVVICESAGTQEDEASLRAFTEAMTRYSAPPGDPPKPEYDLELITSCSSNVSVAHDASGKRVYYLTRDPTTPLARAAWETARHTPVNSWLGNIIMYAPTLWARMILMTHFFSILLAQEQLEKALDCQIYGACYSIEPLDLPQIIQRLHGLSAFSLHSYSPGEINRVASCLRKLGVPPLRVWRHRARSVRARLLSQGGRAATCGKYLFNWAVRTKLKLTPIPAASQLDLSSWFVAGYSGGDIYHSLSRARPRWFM

Compound | EC50 ([1]; Table 1) | IC50 ([2]; Table 1, read-out: IC50*) | also measured
CN(C)S(=O)(=O)NC(=O)c1ccc2c(C3CCCCC3)c3n(c2c1)CC(C(=O)N1CCC(N2CCCC2=O)CC1)=Cc1ccccc1-3 | 70 to 1000 nM | 10 to 1000 nM | –
COc1ccc2c(c1)CC(NC(N)=O)Cn1c-2c(C2CCCCC2)c2ccc(C(=O)NS(=O)(=O)N(C)C)cc21 (stereo not drawn) | – | – | EC50 ([1]; Table 1b): 30 to 1000 nM; IC50 ([2]; Table 1b, read-out: IC50*): 20 to 1000 nM
CN1CCN(S(=O)(=O)NC(=O)c2ccc3c(C4CCCCC4)c4n(c3c2)CC(C(=O)N2CCOCC2)=Cc2ccccc2-4)CC1 | 70 to 1000 nM | 10 to 1000 nM | –
COc1ccc2c(c1)C[C@@H](NC(=O)N(C)CC(=O)N(C)C)Cn1c-2c(C2CCCCC2)c2ccc(C(=O)NS(=O)(=O)N(C)C)cc21 | – | – | EC50 ([1]; Table 1b): 30 to 1000 nM; IC50 ([2]; Table 1b, read-out: IC50*): 20 to 1000 nM
COC(=O)c1ccc2c(C3CCCCC3)c3n(c2c1)CC(C(=O)N1CCC(N2CCOCC2)CC1)=Cc1cc(OC)ccc1-3 | 1000 to 10000 nM | > 1000 nM | –
COc1ccc2c(c1)C=C(C(=O)N1CC(C)CC(O)C1(C)C)Cn1c-2c(C2CCCCC2)c2ccc(C(=O)NS(=O)(=O)N(C)C)cc21 (stereo not drawn) | – | – | EC50 ([1]; Table 1a): 30 to 1000 nM; IC50 ([2]; Table 1a, read-out: IC50*): < 20 nM
CN(C)C(=O)[C@@H]1CCCN1C(=O)C1=Cc2ccccc2-c2c(C3CCCCC3)c3ccc(C(=O)NS(=O)(=O)N(C)C)cc3n2C1 | 70 to 1000 nM | 10 to 1000 nM | –
CN(C)S(=O)(=O)NC(=O)c1ccc2c(C3CCCCC3)c3n(c2c1)CC(C(=O)N1CCC(N(C2CC2)S(=O)(=O)c2ccccc2)CC1)=Cc1ccccc1-3 | 70 to 1000 nM | 10 to 1000 nM | –
COC(=O)c1ccc2c(C3CCCCC3)c3n(c2c1)CC(NC(=O)N1CCOCC1)Cc1ccccc1-3 (stereo not drawn) | > 120 nM | > 1000 nM | –
COC(=O)c1ccc2c(C3CCCCC3)c3n(c2c1)CC(C(=O)N1C[C@@H](C)N[C@@H](C)C1)=Cc1c(OC)cccc1-3 | – | – | EC50 ([1]; Table 1b): > 370 nM; IC50 ([2]; Table 1b, read-out: IC50*): 20 to 1000 nM
COc1ccc(-c2[nH]c3cc(C(=O)NS(=O)(=O)N(C)C)ccc3c2C2CCCCC2)c(C(=O)N(C)CC(=O)N(C)C)c1 | – | – | EC50 ([1]; Table 1a): 30 to 1000 nM; IC50 ([2]; Table 1a, read-out: IC50*): 10 to 1000 nM
COc1ccc2c(c1)C=C(C(=O)N1CC(OP(=O)(OC(C)(C)C)OC(C)(C)C)C1)Cn1c-2c(C2CCCCC2)c2ccc(C(=O)NS(=O)(=O)N(C)C)cc21 | – | – | EC50 ([1]; Table 1b): 30 to 1000 nM; IC50 ([2]; Table 1b, read-out: IC50*): 20 to 1000 nM
O=C(O)c1ccc2c(C3CCCCC3)c3n(c2c1)CC(C(=O)N1CCC(N2CCCC(F)(F)C2)CC1)=Cc1ccccc1-3 | 70 to 1000 nM | 10 to 1000 nM | –
CN(C)S(=O)(=O)NC(=O)c1ccc2c(C3CCCCC3)c3n(c2c1)CC(C(=O)N1CCCC(=O)N1)=Cc1ccccc1-3 [drawing 236] | – | – | EC50 ([1]; Table 1a): 30 to 1000 nM; IC50 ([2]; Table 1a, read-out: IC50*): 10 to 1000 nM
COc1ccc2c(c1)C=C(C(=O)N1CC(C(=O)N(C)C)C1)Cn1c-2c(C2CCCCC2)c2ccc(C(=O)NS(=O)(=O)N(C)C)cc21 | – | – | EC50 ([1]; Table 1b): 30 to 1000 nM; IC50 ([2]; Table 1b, read-out: IC50*): 20 to 1000 nM
CN(C)S(=O)(=O)NC(=O)c1ccc2c(C3CCCCC3)c3n(c2c1)CC(C(=O)N1CCC(N2CCOCC2)CC1)=Cc1ccccc1-3 | 70 to 1000 nM | 10 to 1000 nM | –
COc1ccc2c(c1)C=C(C(=O)N1CC(N)C1)Cn1c-2c(C2CCCCC2)c2ccc(C(=O)NS(=O)(=O)N(C)C)cc21 | – | – | EC50 ([1]; Table 1b): 30 to 1000 nM; IC50 ([2]; Table 1b, read-out: IC50*): 20 to 1000 nM
COc1ccc2c(c1)C=C(C(=O)N1CCOCC1)Cn1c-2c(C2CCCCC2)c2ccc(C(=O)NS(=O)(=O)N3CCOCC3)cc21 [drawing 102] | 70 to 1000 nM | 10 to 1000 nM | –
CN(C)S(=O)(=O)NC(=O)c1ccc2c(C3CCCCC3)c3n(c2c1)CC(C(=O)N1CCCC(F)(F)C1)=Cc1ccccc1-3 | 70 to 1000 nM | 10 to 1000 nM | –
COc1ccc2c(c1)C=C(C(=O)N(C)CCN(C)C(C)=O)Cn1c-2c(C2CCCCC2)c2ccc(C(=O)NS(=O)(=O)N(C)C)cc21 | – | – | EC50 ([1]; Table 1a): 30 to 1000 nM; IC50 ([2]; Table 1a, read-out: IC50*): 10 to 1000 nM
CN1CCCC(CN(C)C(=O)C2=Cc3ccccc3-c3c(C4CCCCC4)c4ccc(C(=O)N(C)CC5CCCN(C)C5)cc4n3C2)C1 (stereo not drawn) | 1000 to 10000 nM | 10 to 1000 nM | –
CN(C)S(=O)(=O)NC(=O)c1ccc2c(C3CCCCC3)c3n(c2c1)CC(C(=O)N1CCC(CNC(=O)c2ccccc2)C1)=Cc1ccccc1-3 (stereo not drawn) | 70 to 1000 nM | 10 to 1000 nM | –
COc1ccc2c(c1)CC(NC(=O)N1CCC(C(N)=O)C1)Cn1c-2c(C2CCCCC2)c2ccc(C(=O)NS(=O)(=O)N(C)C)cc21 (stereo not drawn) | – | – | EC50 ([1]; Table 1b): 30 to 1000 nM; IC50 ([2]; Table 1b, read-out: IC50*): 20 to 1000 nM
CN(C)S(=O)(=O)NC(=O)c1ccc2c(C3CCCCC3)c3n(c2c1)CC(C(=O)N1CCNC(=O)C1)=Cc1ccccc1-3 | 70 to 1000 nM | 10 to 1000 nM | –
O=C(O)c1ccc2c(C3CCCCC3)c3n(c2c1)CC(C(=O)N1CCC(C(=O)N2CCCC2)CC1)=Cc1ccccc1-3 | 70 to 1000 nM | 10 to 1000 nM | –
COc1ccc2c(c1)CC(NC(=O)N1CCN(C(C)=O)CC1)Cn1c-2c(C2CCCCC2)c2ccc(C(=O)NS(=O)(=O)N(C)C)cc21 (stereo not drawn) | – | – | EC50 ([1]; Table 1a): 30 to 1000 nM; IC50 ([2]; Table 1a, read-out: IC50*): 10 to 1000 nM
CS(=O)(=O)NC(=O)c1ccc2c(C3CCCCC3)c3n(c2c1)CC(C(=O)N1CCC(N2CCCC2=O)CC1)=Cc1ccccc1-3 | 1000 to 10000 nM | 10 to 1000 nM | –
